Assay in all cases: Stability to β-lactamase, iodometry (Perret)
Type in all cases: biochemical

The test system of assay [1] is Penicillinase (P. aeruginosa GN-3379). The settings on record: P. aeruginosa GN-3379 penicillinase; PCG = 100; 30° C., pH 7.0. Here is the method: (§1) The stability to β-lactamase was examined by iodometry at 30° C. by the method of Perret (Perret, C. J., "Iodometric assay of penicillinase", Nature, 174, 1012-1013 (1954)), except that a 0.1 M phosphate buffer solution (pH 7.0) was used in place of the 0.2 M phosphate buffer solution (pH 6.5). The stability of each compound was shown in Table 2 in terms of relative degree of hydrolysis, assuming the stability of Cephaloridin (CER) to cephalosporinase as 100 and the stability of Penicillin G (PCG) to penicillinase as 100.

Assay [2] concerns Penicillinase (E. coli TK-3). The settings on record: E. coli TK-3 penicillinase; PCG = 100; 30° C., pH 7.0. As for the experimental part:
as §1

The subject of assay [3] is Penicillinase (K. pneumoniae Y-4). The settings on record: K. pneumoniae Y-4 penicillinase; PCG = 100; 30° C., pH 7.0. As for the experimental part:
as §1

The target in assay [4] is T1, Cephalosporinase (E. coli GN-5482) (Escherichia coli, UniProt P00811).
T1 construct: native preparation, details not in excerpts
The settings on record: E. coli GN-5482 cephalosporinase; CER = 100; 30° C., pH 7.0. Here is the method:
as §1

The target in assay [5] is T2, Cephalosporinase (S. marcescens W-8) (Serratia marcescens, UniProt P18539).
T2 construct: native preparation, details not in excerpts
To be noted: S. marcescens W-8 cephalosporinase; CER = 100; 30° C., pH 7.0. As for the experimental part:
as §1

T1 sequence (P00811 20-377): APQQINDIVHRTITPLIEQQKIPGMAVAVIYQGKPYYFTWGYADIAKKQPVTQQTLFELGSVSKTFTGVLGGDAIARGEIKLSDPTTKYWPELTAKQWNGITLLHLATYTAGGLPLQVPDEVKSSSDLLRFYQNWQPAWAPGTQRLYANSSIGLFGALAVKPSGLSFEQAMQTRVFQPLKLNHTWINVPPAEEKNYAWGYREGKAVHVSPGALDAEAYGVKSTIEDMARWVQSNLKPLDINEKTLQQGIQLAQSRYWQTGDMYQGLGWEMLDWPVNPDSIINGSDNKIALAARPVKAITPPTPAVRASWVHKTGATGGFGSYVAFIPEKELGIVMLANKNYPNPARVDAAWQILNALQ
T2 sequence (P18539 22-376): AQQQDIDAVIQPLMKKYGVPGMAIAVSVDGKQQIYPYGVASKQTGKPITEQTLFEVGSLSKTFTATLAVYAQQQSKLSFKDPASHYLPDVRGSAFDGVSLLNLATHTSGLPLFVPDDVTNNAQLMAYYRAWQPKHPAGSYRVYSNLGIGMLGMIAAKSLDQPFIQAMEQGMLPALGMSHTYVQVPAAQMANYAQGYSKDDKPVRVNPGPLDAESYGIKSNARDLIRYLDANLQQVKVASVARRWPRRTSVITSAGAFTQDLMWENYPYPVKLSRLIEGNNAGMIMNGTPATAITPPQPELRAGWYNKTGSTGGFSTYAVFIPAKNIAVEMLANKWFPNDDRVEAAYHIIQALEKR

Regarding `CC1(C)S[C@@H]2[C@H](NC(=O)Cc3ccccc3)C(=O)N2[C@H]1C(=O)O` [PC-G, Penicillin G], the “Stability to β-lactamase, relative degree of hydrolysis” value in assay [1] came to 100; in assay [2], 100; in assay [3] it was 100; in assay [4], 22; in assay [5], 21.

Take `Cc1nnc(SCC2=C(C(=O)O)N3C(=O)[C@@H](NC(=O)Cn4cnnn4)[C@H]3SC2)s1` [CEZ, Cefazolin]: the “Stability to β-lactamase, relative degree of hydrolysis” value in assay [1] was 2; in assay [2], 21; in assay [3] it was 4; in assay [4] it was 130; in assay [5] it was 94.

As for `O=C(Cc1cccs1)N[C@@H]1C(=O)N2C(C(=O)[O-])=C(C[n+]3ccccc3)CS[C@H]12` [CER, Cephaloridin], the “Stability to β-lactamase, relative degree of hydrolysis” value is recorded as 18 in assay [1]; 115 in assay [2]; 41 in assay [3]; 100 in assay [4]; 100 in assay [5].
